In ChEMBL document CHEMBL1201862, “PubChem BioAssay data set” (2004):
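Growth conditions: 96-well plates. Treatment: test compound, 48 hours, 5 concentrations. Analysis: linear interpolation between bracketing concentrations; unreached endpoints set to highest concentration. Here, GI50 denotes the concentration required for 50% inhibition of growth.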 Calls of active or inactive are those of the source. Cut-off read from the data, not from the text of the source: active = GI50 up to about 1.1 µM and inactive = higher.

Columns and labels:
Experiment in all cases: NCI anticancer screen, dose series, 48 h
DU-145 = tested on: DU-145
SW-620 = tested on: SW-620
SK-MEL-2 = tested on: SK-MEL-2
MOLT-4 = tested on: MOLT-4
MCF7 = tested on: MCF7
Malme-3M = tested on: Malme-3M
A549 = tested on: A549
OVCAR-8 = tested on: OVCAR-8
SF-295 = tested on: SF-295
M14 = tested on: M14
A498 = tested on: A498
UACC-257 = tested on: UACC-257
HCT-15 = tested on: HCT-15
Hs-578T = tested on: Hs-578T
COLO 205 = tested on: COLO 205
EKVX = tested on: EKVX
OVCAR-4 = tested on: OVCAR-4
NCI-H23 = tested on: NCI-H23
SNB-75 = tested on: SNB-75
LXFL 529 = tested on: LXFL 529

| Structure (SMILES) | GI50 (DU-145) | GI50 (SW-620) | GI50 (SK-MEL-2) | GI50 (MOLT-4) | GI50 (MCF7) | GI50 (Malme-3M) | GI50 (A549) | GI50 (OVCAR-8) | GI50 (SF-295) | GI50 (M14) | GI50 (A498) | GI50 (UACC-257) | GI50 (HCT-15) [µM] | GI50 (Hs-578T) | GI50 (COLO 205) | GI50 (EKVX) | GI50 (OVCAR-4) | GI50 (NCI-H23) | GI50 (SNB-75) | GI50 (LXFL 529) |
| --- | --- | --- | --- | --- | --- | --- | --- | --- | --- | --- | --- | --- | --- | --- | --- | --- | --- | --- | --- | --- |
| O=C(CC1(O)C(=O)Nc2c(Cl)cc(Cl)cc21)c1ccc(Br)cc1Br (stereo unspecified) | 16.3 µM (inactive) | 3.3 µM (inactive) | 15.2 µM (inactive) | 1.32 µM (inactive) | 13.2 µM (inactive) | 11.5 µM (inactive) | 22.2 µM (inactive) | 7.98 µM (inactive) | 20 µM (inactive) | 5.96 µM (inactive) | 22.1 µM (inactive) | 10.7 µM (inactive) | 8.57 | 0.0646 µM (active) | 7.21 µM (inactive) | 19 µM (inactive) | 12.2 µM (inactive) | 8.26 µM (inactive) | 18.1 µM (inactive) | – |
| CC12CN(CC[N+](C)(C)C)CC1(C)C1CCC2O1 (stereo unspecified) | > 100 µM (inactive) | > 100 µM (inactive) | > 100 µM (inactive) | > 100 µM (inactive) | > 100 µM (inactive) | > 100 µM (inactive) | > 100 µM (inactive) | > 100 µM (inactive) | > 100 µM (inactive) | > 100 µM (inactive) | > 100 µM (inactive) | > 100 µM (inactive) | > 100 | > 100 µM (inactive) | > 100 µM (inactive) | > 100 µM (inactive) | > 100 µM (inactive) | > 100 µM (inactive) | > 100 µM (inactive) | – |
| N#CCN1CCOCCOCCN(CC#N)CCOCCOCC1 | – | > 100 µM (inactive) | – | > 100 µM (inactive) | – | > 100 µM (inactive) | > 100 µM (inactive) | > 100 µM (inactive) | > 100 µM (inactive) | > 100 µM (inactive) | > 100 µM (inactive) | > 100 µM (inactive) | > 100 | – | > 100 µM (inactive) | > 100 µM (inactive) | > 100 µM (inactive) | > 100 µM (inactive) | > 100 µM (inactive) | > 100 µM (inactive) |
| CC(=O)Oc1cc2c(cc1OC(C)=O)C1(C)CCC2(C)c2cc(OC(C)=O)c(OC(C)=O)cc21 | – | 7.73 µM (inactive) | 16.7 µM (inactive) | 8.2 µM (inactive) | – | 13 µM (inactive) | 34 µM (inactive) | 15 µM (inactive) | 24.5 µM (inactive) | 18.3 µM (inactive) | – | 11.3 µM (inactive) | 6.92 | – | 51.4 µM (inactive) | 35.8 µM (inactive) | 14.4 µM (inactive) | 43.2 µM (inactive) | 4.92 µM (inactive) | 4.99 µM (inactive) |
| COc1ccc2n[se]nc2c1 | – | > 100 µM (inactive) | 41.5 µM (inactive) | > 100 µM (inactive) | – | 65.8 µM (inactive) | 45.5 µM (inactive) | > 100 µM (inactive) | 32 µM (inactive) | > 100 µM (inactive) | – | 54.6 µM (inactive) | > 100 | – | > 100 µM (inactive) | > 100 µM (inactive) | > 100 µM (inactive) | > 100 µM (inactive) | 64.1 µM (inactive) | > 100 µM (inactive) |
| CC(O)CN1c2ccccc2Sc2ccc(Cl)cc21 (stereo unspecified) | > 10 µM (inactive) | > 10 µM (inactive) | > 10 µM (inactive) | > 10 µM (inactive) | > 10 µM (inactive) | > 10 µM (inactive) | > 10 µM (inactive) | > 10 µM (inactive) | > 10 µM (inactive) | > 10 µM (inactive) | > 10 µM (inactive) | > 10 µM (inactive) | > 10 | > 10 µM (inactive) | > 10 µM (inactive) | > 10 µM (inactive) | > 10 µM (inactive) | > 10 µM (inactive) | > 10 µM (inactive) | – |
| C[N+](C)([O-])CCC=C1c2ccccc2CCc2ccccc21 | 26 µM (inactive) | 21.8 µM (inactive) | 18.5 µM (inactive) | 17.2 µM (inactive) | 19.9 µM (inactive) | 18.5 µM (inactive) | 28.1 µM (inactive) | 23.4 µM (inactive) | 27.5 µM (inactive) | 31 µM (inactive) | 21.5 µM (inactive) | 35.5 µM (inactive) | 27.7 | 25.6 µM (inactive) | 20 µM (inactive) | 24.8 µM (inactive) | 28.2 µM (inactive) | 34.1 µM (inactive) | 29.3 µM (inactive) | – |
| CN1CCN(CN2C(=O)C3C4C=CC(C3C2=O)C2C3C(=O)N(CN5CCN(C)CC5)C(=O)C3C42)CC1 (stereo unspecified) | – | 19 µM (inactive) | – | 22.2 µM (inactive) | – | – | 32.4 µM (inactive) | 17.7 µM (inactive) | – | 16.4 µM (inactive) | 93.1 µM (inactive) | – | 16.9 | – | 17.5 µM (inactive) | – | 21.3 µM (inactive) | 21.2 µM (inactive) | 27.4 µM (inactive) | 19.9 µM (inactive) |
